Values quoted from earlier work in patent US20080096972A1, “COMPOUND FORMULATIONS OF 2-AMINO-1, 3-PROPANEDIOL COMPOUNDS” (priority 2004, published 2008).

Conditions: shortly after preparation or upon storage

For CCCCCCCCc1ccc(CCC(N)(CO)CO)cc1 [2-amino-2-[2-(4-octylphenyl)ethyl]-propane-1,3-diol], the “crystalline deposits in aqueous solutions” value is listed as “crystalline deposits of this compound have been observed”.
